Reference: patent US9693997B2, “Antiviral compounds” (priority 2013, dated 2017)

How the values were obtained:
Experiment in all cases: microbe, parasite or virus in culture
[1] = tested on: Pseudotyped HCV GT1b particles (HCVpp), entry into Huh7-high CD81 cells; assay type: cell-based, HCV GT1b Con1 strain; settings: Hepatitis C virus, GT1B, 72 h, read-out: HCVpp GT-1b (EC50, μM)
[2] = tested on: Pseudotyped HCV GT1a particles (HCVpp), entry into Huh7-high CD81 cells; assay type: cell-based, HCV GT1a H77 strain; settings: Hepatitis C virus, 72 h, read-out: HCVpp GT-1a (EC50, μM)
[3] = tested on: pseudotyped VSV G particles (VSVpp) in Huh7-high CD81 cells; assay type: cell-based, vesicular stomatitis virus; settings: Vesicular stomatitis virus, 72 h, read-out: VSVpp (EC50, μM)

Structure (SMILES) | EC50 [1] [µM] | EC50 [2] [µM] | EC50 [3] [µM]
Nc1nc(Nc2cc(Cl)c(-c3ccc(OC[C@@H]4CCCN4)cc3)c(Cl)c2)n[nH]1 [Compound 265, N*3*-[2,6-Dichloro-4′-((S)-1-pyrrolidin-2-ylmethoxy)-biphenyl-4-yl]-1H-[1,2,4]triazole-3,5-diamine] | 0.063 | 0.005 | 17.9
COc1ccc(-c2c(Cl)cc(Nc3n[nH]c(N)n3)cc2C(F)(F)F)cc1S(=O)(=O)NC(C)(C)CO [Compound 218, 4′-(5-Amino-1H-[1,2,4]triazol-3-ylamino)-6′-chloro-4-methoxy-2′-trifluoromethyl-biphenyl-3-sulfonic acid (2-hydroxy-1,1-dimethyl-ethyl)-amide] | 0.005 | 0.003 | 20.3
CC(C)(C)NS(=O)(=O)c1ccc(-c2c(Cl)cc(Nc3n[nH]c(N)n3)cc2C(F)(F)F)cc1 [Compound 219, 4′-(5-Amino-1H-[1,2,4]triazol-3-ylamino)-6′-chloro-2′-trifluoromethyl-biphenyl-4-sulfonic acid tert-butylamide] | – | 0.011 | 16.2
Nc1nc(Nc2ccc(-c3ccccc3)cc2)n[nH]1 [Compound 55, N*3*-Biphenyl-4-yl-1H-[1,2,4]triazole-3,5-diamine] | 100 | 25.1 | 100
CS(=O)(=O)Cc1ccc(-c2c(Cl)cc(Nc3n[nH]c(N)n3)cc2Cl)cc1 [Compound 31, N*3*-(2,6-Dichloro-4′-methanesulfonylmethyl-biphenyl-4-yl)-1H-[1,2,4]triazole-3,5-diamine] | 0.086 | 0.004 | 3.23
CNC(=O)c1cccc(-c2c(Cl)cc(Nc3n[nH]c(N)n3)cc2Cl)c1 [Compound 117, 4′-(5-Amino-1H-[1,2,4]triazol-3-ylamino)-2′,6′-dichloro-biphenyl-3-carboxylic acid methylamide] | 0.218 | 0.011 | 26.1
Nc1nc(Nc2cc(Cl)c(-c3ccc(C(F)(F)F)cc3)c(Cl)c2)n[nH]1 [Compound 99, N-3-(2,6-Dichloro-4′-trifluoromethyl-biphenyl-4-yl)-1H-[1,2,4]triazole-3,5-diamine] | 1.57 | 0.056 | 20.6
Nc1nc(Nc2ccc(-c3ccc(F)c(F)c3)c(Cl)c2)n[nH]1 [Compound 147, N*3*-(2-Chloro-3′,4′-difluoro-biphenyl-4-yl)-1H-[1,2,4]triazole-3,5-diamine] | 6.12 | 0.621 | 47.2
Nc1nc(Nc2cc(Cl)c(-c3cccc4ccccc34)c(Cl)c2)n[nH]1 [Compound 95, N-3-(3,5-Dichloro-4-naphthalen-1-yl-phenyl)-1H-[1,2,4]triazole-3,5-diamine] | 0.229 | 0.028 | 24.1
N#CCCCOc1ccc(-c2c(Cl)cc(Nc3n[nH]c(N)n3)cc2Cl)cc1 [Compound 26, 4-[4′-(5-Amino-1H-[1,2,4]triazol-3-ylamino)-2′,6′-dichloro-biphenyl-4-yloxy]-butyronitrile] | 0.116 | 0.008 | 3.79
Nc1nc(Nc2cc(Cl)c(-c3ccccc3F)c(Cl)c2)n[nH]1 [Compound 287, N3-(2,6-dichloro-2′-fluorobiphenyl-4-yl)-1H-1,2,4-triazole-3,5-diamine] | 0.366 | 0.005 | 13
CS(=O)(=O)NCc1ccc(-c2c(Cl)cc(Nc3n[nH]c(N)n3)cc2Cl)cc1 [Compound 12, N-[4′-(5-Amino-1H-[1,2,4]triazol-3-ylamino)-2′,6′-dichloro-biphenyl-4-ylmethyl]-methanesulfonamide] | 0.035 | 0.003 | 18.3
CS(=O)(=O)c1cccc(-c2c(Cl)cc(Nc3n[nH]c(N)n3)cc2Cl)c1 [Compound 114, N-3-(2,6-Dichloro-3′-methanesulfonyl-biphenyl-4-yl)-1H-[1,2,4]triazole-3,5-diamine] | 0.069 | 0.01 | 18.2
Nc1nc(Nc2ccc(-c3ccccc3)c(Cl)c2)n[nH]1 [Compound 144, N*3*-(2-Chloro-biphenyl-4-yl)-1H-[1,2,4]triazole-3,5-diamine] | 2.92 | 0.333 | 34.8
Cc1ccc(-c2c(Cl)cc(Nc3n[nH]c(N)n3)cc2Cl)cc1 [Compound 97, N-3-(2,6-Dichloro-4′-methyl-biphenyl-4-yl)-1H-[1,2,4]triazole-3,5-diamine] | 0.704 | 0.007 | 9.33
COc1cccc(-c2c(Cl)cc(Nc3n[nH]c(N)n3)cc2Cl)c1 [Compound 100, N-3-(2,6-Dichloro-3′-methoxy-biphenyl-4-yl)-1H-[1,2,4]triazole-3,5-diamine] | 0.839 | 0.062 | 14.3
Nc1nc(Nc2ccc(-c3cccc(F)c3)c(Cl)c2)n[nH]1 [Compound 148, N*3*-(2-Chloro-3′-fluoro-biphenyl-4-yl)-1H-[1,2,4]triazole-3,5-diamine] | 3.34 | 0.301 | 33.8
CS(=O)(=O)Nc1cccc(-c2c(Cl)cc(Nc3n[nH]c(N)n3)cc2Cl)c1 [Compound 112, N-[4′-(5-Amino-1H-[1,2,4]triazol-3-ylamino)-2′,6′-dichloro-biphenyl-3-yl]-methanesulfonamide] | 0.048 | 0.006 | 15.3
NC(=O)c1ccc(-c2c(Cl)cc(Nc3n[nH]c(N)n3)cc2Cl)cc1 [Compound 159, 4′-(5-amino-1H-1,2,4-triazol-3-ylamino)-2′,6′-dichlorobiphenyl-4-carboxamide] | 0.164 | 0.005 | 4.62
CN(C)S(=O)(=O)c1ccc(-c2c(F)cc(Nc3n[nH]c(N)n3)cc2Cl)cc1 [Compound 34, 4′-(5-Amino-1H-[1,2,4]triazol-3-ylamino)-2′-chloro-6′-fluoro-biphenyl-4-sulfonic acid dimethylamide] | 0.122 | 0.028 | > 10
CC(C)(C)OC(=O)N1CCC(S(=O)(=O)c2ccc(-c3c(Cl)cc(Nc4n[nH]c(N)n4)cc3C(F)(F)F)cc2)CC1 [Compound 1, 4-[4′-(5-Amino-1H-[1,2,4]triazol-3-ylamino)-2′-chloro-6′-trifluoromethyl-biphenyl-4-sulfonyl]-piperidine-1-carboxylic acid tert-butyl ester] | 0.001 | 0.014 | > 10
Nc1nc(Nc2ccc(-c3ccc(F)cc3)c(Cl)c2)n[nH]1 [Compound 145, N*3*-(2-Chloro-4′-fluoro-biphenyl-4-yl)-1H-[1,2,4]triazole-3,5-diamine] | 6.02 | 0.532 | 39.1
Nc1nc(Nc2cc(Cl)c(-c3ccc(NC(=O)CCCC[C@@H]4SC[C@@H]5NC(=O)N[C@@H]54)cc3)c(Cl)c2)n[nH]1 [Compound 39, 5-((3aS,4S,6aR)-2-Oxo-hexaneahydro-thieno[3,4-d]imidazol-4-yl)-pentanoic acid [4′-(5-amino-1H-[1,2,4]triazol-3-ylamino)-2′,6′-dichloro-biphenyl-4-yl]-amide] | 0.09 | 0.002 | > 10
CC(C)(C)NS(=O)(=O)c1ccc(-c2c(Cl)cc(Nc3n[nH]c(N)n3)cc2C(F)(F)F)cc1OC(F)(F)F [Compound 217, 4′-(5-Amino-1H-[1,2,4]triazol-3-ylamino)-6′-chloro-3-trifluoromethoxy-2′-trifluoromethylbiphenyl-4-sulfonic acid tert-butylamide] | – | 0.003 | 7.5
Nc1nc(Nc2cc(Cl)c(-c3ccc(S(=O)(=O)N4CCNCC4)cc3)c(C(F)(F)F)c2)n[nH]1 [Compound 33, N*3*-[2-Chloro-4′-(piperazine-1-sulfonyl)-6-trifluoromethyl-biphenyl-4-yl]-1H-[1,2,4]triazole-3,5-diamine] | 0.099 | 0.019 | 34.3
COc1ccc(-c2c(Cl)cc(Nc3n[nH]c(N)n3)cc2C(F)(F)F)cc1S(=O)(=O)N1CCOCC1 [Compound 177, N3-(2-chloro-4′-methoxy-3′-(morpholinosulfonyl)-6-(trifluoromethyl)biphenyl-4-yl)-1H-1,2,4-triazole-3,5-diamine] | 0.018 | 0.003 | 23.4
CS(=O)(=O)Nc1ccc(-c2c(Cl)cc(Nc3n[nH]c(N)n3)cc2Cl)cc1 [Compound 111, N-[4′-(5-Amino-1H-[1,2,4]triazol-3-ylamino)-2′,6′-dichloro-biphenyl-4-yl]-methanesulfonamide] | 0.039 | 0.003 | 7.53
Nc1nc(Nc2cc(Cl)c(-c3ccc(F)cc3)c(Cl)c2)n[nH]1 [Compound 286, N3-(2,6-dichloro-4′-fluorobiphenyl-4-yl)-1H-1,2,4-triazole-3,5-diamine] | 0.64 | 0.018 | 13.6
COc1ccc(-c2c(Cl)cc(Nc3n[nH]c(N)n3)cc2C(F)(F)F)cc1S(=O)(=O)N1CCN(C(=O)OC(C)(C)C)CC1 [Compound 166, tert-butyl 4-(4′-(5-amino-1H-1,2,4-triazol-3-ylamino)-2′-chloro-4-methoxy-6′-(trifluoromethyl)biphenyl-3-ylsulfonyl)piperazine-1-carboxylate] | 0.005 | 0.003 | > 10
CC(C)S(=O)(=O)c1ccc(-c2c(Cl)cc(Nc3n[nH]c(N)n3)cc2C(F)(F)F)cc1 [Compound 181, N3-(2-chloro-4′-(isopropylsulfonyl)-6-(trifluoromethyl)biphenyl-4-yl)-1H-1,2,4-triazole-3,5-diamine] | 0.059 | 0.021 | –
